From ChEMBL document CHEMBL5385862, “Acyloxymethyl and alkoxycarbonyloxymethyl prodrugs of a fosmidomycin surrogate as antimalarial and antibacterial agents” (Eur J Med Chem, 2023) come the findings set out here.

Each structure is given as a SMILES string.

For one data set, the system named is Acinetobacter baumannii. In words: Antibacterial activity against Acinetobacter baumannii assessed as inhibition of bacterial growth. The format is functional, organism-based.
A further data set has as its system Plasmodium falciparum. In words: Antiplasmodial activity against asexual blood stage Plasmodium falciparum K1 assessed as inhibition of parasitic growth. The format is functional, organism-based.
Data set [1] concerns Mycobacterium tuberculosis. The experiment in a line: Antitubercular activity against Mycobacterium tuberculosis H37Ra assessed as inhibition of bacterial growth. It is filed as functional, organism-based.
A short description of data set [2]: Selectivity index ratio of CC50 for cytotoxicity against human MRC5 cells to IC50 for antiplasmodial activity against asexual blood stage Plasmodium falciparum K1 assessed as inhibition of parasitic growth. It is filed as toxicity, cell-based. The conditions noted are these: read-out: Ratio CC50/IC50.
Data set [3] in a line: Selectivity index ratio of CC50 for cytotoxicity against human MRC5 cells to IC50 for antibacterial activity against Acinetobacter baumannii assessed as inhibition of bacterial growth. The conditions noted are these: read-out: Ratio CC50/IC50. The format is toxicity, cell-based.
Data set [4] can be described thus: Cytotoxicity against human MRC5 cells assessed as reduction in cell viability. It is filed as toxicity, cell-based.

The IC50 is the midpoint of a concentration-inhibition curve. Usually CC50 stands for the concentration that lowers cell viability or growth by half. `CCON(C)C(=O)CCCP(=O)(OCOC(=O)OCc1coc(-c2ccccc2O)n1)OCOC(=O)OCc1coc(-c2ccccc2O)n1`: the figures for the IC50 (in the data set on Acinetobacter baumannii; in the data set on Plasmodium falciparum; in data set [1]) were 7.1 µM, 420 nM and more than 64 µM, respectively. Further, the selectivity ratio worked out at 61 in data set [2] and 3.6 in data set [3]. The CC50 in data set [4] is 25.5 µM.

For the compound `CCON(C)C(=O)CCCP(=O)(OCOC(=O)c1coc(-c2ccccc2O)n1)OCOC(=O)c1coc(-c2ccccc2O)n1`, the 50% inhibitory concentration (IC50) with Acinetobacter baumannii was 16 µM; in the data set on Plasmodium falciparum it was 540 nM; in data set [1] it was more than 64 µM. The selectivity ratio was determined as 48 in data set [2] and 1.6 in data set [3]. Besides, the CC50 in data set [4] is 26 µM.

Consider `CCCCCCCCOC(=O)OCOP(=O)(CCCC(=O)N(C)O)OCOC(=O)OCCCCCCCC`, for which the 50% inhibitory concentration (IC50) in the data set on Acinetobacter baumannii was 0.7 µM; with Plasmodium falciparum it was 70 nM; in data set [1] it was more than 64 µM. Besides, the selectivity ratio in data set [2] worked out at 539; in data set [3], 54. In data set [4], the CC50 is 37.7 µM.

Consider `CN(O)C(=O)CCCP(=O)(OCOC(=O)C(C)(C)C)OCOC(=O)C(C)(C)C`, for which the values for the IC50 (with Acinetobacter baumannii; in the data set on Plasmodium falciparum; in data set [1]) were 12 µM, 860 nM and more than 56.1 µM, respectively. The selectivity ratio in data set [2] is more than 59; in data set [3] it was more than 4.3. Besides, the 50% cytotoxic concentration (CC50) in data set [4] was more than 51 µM.

Consider `Cc1ccc(C(=O)OCOP(=O)(CCCC(=O)N(C)O)OCOC(=O)c2ccc(C)cc2)cc1`, for which the IC50 is 11 µM with Acinetobacter baumannii, 570 nM in the data set on Plasmodium falciparum and more than 64 µM in data set [1]. Besides, the selectivity ratio in data set [2] was more than 112; in data set [3], more than 5.8. Further, the 50% cytotoxic concentration (CC50) in data set [4] is more than 64 µM.

With `CC(C)OC(=O)OCOP(=O)(CCCC(=O)N(C)O)OCOC(=O)OC(C)C`, the IC50 is more than 149 µM in the data set on Acinetobacter baumannii, 110 nM in the data set on Plasmodium falciparum and more than 64 µM in data set [1]. In addition, the selectivity ratio in data set [2] was more than 461. Besides, the CC50 in data set [4] was more than 50.7 µM.

As to `CN(O)C(=O)CCCP(=O)(OCOC(=O)CCc1ccccc1)OCOC(=O)CCc1ccccc1`, the results for the IC50 (in the data set with Acinetobacter baumannii; in the data set with Plasmodium falciparum; in data set [1]) were 21 µM, 90 nM and more than 64 µM, respectively. Besides, the selectivity ratio is more than 711 in data set [2] and more than 3 in data set [3]. Also, the CC50 in data set [4] is more than 64 µM.

Regarding `CCCCCCCC(=O)OCOP(=O)(CCCC(=O)N(C)O)OCOC(=O)CCCCCCC`, the values for the concentration for half-maximal inhibition (IC50) (in the data set with Acinetobacter baumannii; in the data set with Plasmodium falciparum; in data set [1]) were 0.39 µM, 30 nM and more than 64 µM, respectively. Further, the results for the selectivity ratio in data set [2] and in data set [3] were 1340 and 103, respectively. Moreover, the cytotoxic concentration (CC50) in data set [4] is 40.3 µM.

As to `CN(O)C(=O)CCCP(=O)(OCOC(=O)CCCCc1ccccc1)OCOC(=O)CCCCc1ccccc1`, the half-inhibitory concentration (IC50) in the data set with Acinetobacter baumannii is 2.4 µM; in the data set with Plasmodium falciparum, 50 nM; in data set [1], more than 64 µM. The selectivity ratio was more than 1280 in data set [2] and more than 27 in data set [3]. Moreover, the 50% cytotoxic concentration (CC50) in data set [4] is more than 64 µM.

In the case of `CCON(C)C(=O)CCCP(=O)(OCOC(=O)c1cccc(O)c1O)OCOC(=O)c1cccc(O)c1O`, the IC50 in the data set on Acinetobacter baumannii is more than 121 µM; with Plasmodium falciparum, 1050 nM; in data set [1] it was more than 64 µM. The selectivity ratio in data set [2] is more than 61. The cytotoxic concentration (CC50) in data set [4] is more than 64 µM.

Regarding `CCON(C)C(=O)CCCP(=O)(OCOC(=O)c1ccccc1O)OCOC(=O)c1ccccc1O`, the half-maximal inhibitory concentration (IC50) in the data set on Acinetobacter baumannii is more than 129 µM; with Plasmodium falciparum it was 280 nM; in data set [1], more than 64 µM. In data set [2], the selectivity ratio is more than 229. In data set [4], the CC50 was more than 64 µM.

`CN(O)C(=O)CCCP(=O)(OCOC(=O)c1ccc(Cl)cc1)OCOC(=O)c1ccc(Cl)cc1`: the results for the IC50 (with Acinetobacter baumannii; in the data set on Plasmodium falciparum; in data set [1]) were 39 µM, 140 nM and more than 64 µM, respectively. Moreover, the selectivity ratio in data set [2] is 223; in data set [3] it was 0.8. Besides, the CC50 in data set [4] is 31.2 µM.

`CC(C)OC(=O)OCOP(=O)(OCOC(=O)OC(C)C)C(CCC(=O)N(C)O)c1ccc(Cl)c(Cl)c1` (stereo not drawn): the IC50 in the data set on Acinetobacter baumannii was more than 111 µM; in the data set with Plasmodium falciparum, 230 nM; in data set [1], more than 64 µM. In data set [2], the selectivity ratio came to 33. In data set [4], the CC50 worked out at 7.58 µM.

For the compound `CN(O)C(=O)CCCP(=O)(OCOC(=O)OCCCc1ccccc1)OCOC(=O)OCCCc1ccccc1`, the IC50 in the data set with Acinetobacter baumannii was 2.6 µM; in the data set with Plasmodium falciparum, 90 nM; in data set [1] it was more than 64 µM. Also, the selectivity ratio in data set [2] is more than 711; in data set [3], more than 25. Further, the CC50 in data set [4] was more than 64 µM.

As for `CN(O)C(=O)CCC(c1ccc(Cl)c(Cl)c1)P(=O)(OCOC(=O)C(C)(C)C)OCOC(=O)C(C)(C)C` (stereo not drawn), the figures for the IC50 (in the data set on Acinetobacter baumannii; in the data set on Plasmodium falciparum; in data set [1]) were more than 112 µM, 440 nM and more than 64 µM, respectively. Moreover, the selectivity ratio in data set [2] worked out at 15. Further, the CC50 in data set [4] turned out to be 6.81 µM.

As to `CN(O)C(=O)CCCP(=O)(OCOC(=O)c1ccccc1)OCOC(=O)c1ccccc1`, the IC50 in the data set on Acinetobacter baumannii is 8.2 µM; in the data set on Plasmodium falciparum, 120 nM; in data set [1] it was more than 64 µM. Also, the selectivity ratio in data set [2] stood at 234; in data set [3], 3.4. Further, in data set [4], the half-maximal cytotoxic concentration (CC50) was found to be 28.1 µM.

On to `CN(O)C(=O)CCC(c1ccc(Cl)c(Cl)c1)P(=O)(OCOC(=O)/C=C/c1ccccc1)OCOC(=O)/C=C/c1ccccc1` (stereo not drawn), for which the results for the half-inhibitory concentration (IC50) (in the data set on Acinetobacter baumannii; in the data set with Plasmodium falciparum; in data set [1]) were more than 97 µM, 4420 nM and more than 64 µM, respectively. Besides, the selectivity ratio in data set [2] was determined as 5.6. In data set [4], the CC50 was 24.6 µM.

On to `CN(O)C(=O)CCCP(=O)(OCOC(=O)/C=C/c1ccccc1)OCOC(=O)/C=C/c1ccccc1`, for which the IC50 was 5.6 µM with Acinetobacter baumannii, 50 nM in the data set with Plasmodium falciparum and more than 64 µM in data set [1]. Also, the selectivity ratio in data set [2] was found to be 606; in data set [3], 5.4. For the same compound, the CC50 in data set [4] stood at 30.3 µM.

`CN(O)C(=O)CCCP(=O)(OCOC(=O)c1cccc(Cl)c1)OCOC(=O)c1cccc(Cl)c1`: the values for the IC50 (with Acinetobacter baumannii; in the data set on Plasmodium falciparum; in data set [1]) were 54 µM, 140 nM and more than 64 µM, respectively. In addition, the values for the selectivity ratio in data set [2] and in data set [3] were more than 457 and more than 1.2, respectively. The cytotoxic concentration (CC50) in data set [4] is more than 64 µM.

As for `CN(O)C(=O)CCCP(=O)(OCOC(=O)c1ccc2ccccc2c1)OCOC(=O)c1ccc2ccccc2c1`, the figures for the IC50 (with Acinetobacter baumannii; in the data set on Plasmodium falciparum; in data set [1]) were 51 µM, 250 nM and more than 64 µM, respectively. Besides, the selectivity ratio came out at 109 in data set [2] and 0.53 in data set [3]. Moreover, the CC50 in data set [4] is 27.2 µM.

`COc1ccc(C(=O)OCOP(=O)(CCCC(=O)N(C)O)OCOC(=O)c2ccc(OC)cc2)cc1`: the values for the IC50 (in the data set with Acinetobacter baumannii; in the data set with Plasmodium falciparum; in data set [1]) were 9.9 µM, 180 nM and more than 64 µM, respectively. The results for the selectivity ratio in data set [2] and in data set [3] were 184 and 3.3, respectively. For the same compound, the half-maximal cytotoxic concentration (CC50) in data set [4] stood at 33.1 µM.

Regarding `O=CN(O)CCCP(=O)(O)O` [FOSMIDOMYCIN SODIUM], in data set [1], the IC50 was more than 64 µM. The half-maximal cytotoxic concentration (CC50) in data set [4] was more than 64 µM.

For `CCCCCCCC(=O)OCOP(=O)(OCOC(=O)CCCCCCC)C(CCC(=O)N(C)O)c1ccc(Cl)c(Cl)c1` (stereo not drawn), the concentration for half-maximal inhibition (IC50) with Acinetobacter baumannii is 11 µM; in the data set on Plasmodium falciparum it was 440 nM; in data set [1], more than 64 µM. Further, the selectivity ratio in data set [2] was determined as 51; in data set [3] it was 2. Further, the half-maximal cytotoxic concentration (CC50) in data set [4] was 22.5 µM.
